# Assay results from ChEMBL document CHEMBL4483862, “Open-source discovery of chemical leads for next-generation chemoprotective antimalarials” (2018).
# pIC50: −log10 of the molar value.
# System: Plasmodium berghei
# Assay: Luciferase/luciferin-expressing antifolate-resistant parasites were used to infect a culture of HepG2 cells that were pre-incubated with compounds. Infected hepatocytes emit light due to the luciferase reaction. Assay results are presented as the percent inhibition of light emission compared to control. […]
# Assay type: functional
# Conditions: sporozoite; for IC90: read-out: LUCIFERASE INFECTION ASSAY - IC90
# [1] = read-out: LUCIFERASE INFECTION ASSAY - IC50
SMILES,IC90,further results
COc1cccc(-c2cn3c(-c4cccc(O)c4)cnc3cn2)c1F,3.69 µM,"pIC50 (PBLUC_HILL_SLOPE 18.9, PBLUC_R_SQUARED 0.523, read-out: LUCIFERASE INFECTION ASSAY - IC50): 5.48"
CN1/C(=C\C=N\c2cc(Cl)c([N+](=O)[O-])cc2O)C(C)(C)c2ccccc21,> 10 µM,"pIC50 (HEPG2TOX_HILL_SLOPE 12.2, 11.0, HEPG2TOX_R_SQUARED 0.457, 0.953, PBLUC_HILL_SLOPE 3.42, PBLUC_R_SQUARED 0.319, read-out: LUCIFERASE INFECTION ASSAY - IC50): 5.25"
O=C(CCc1cccnc1)Nc1nc(-c2ccc3c(c2)OCCO3)cs1,> 10 µM,pIC50 [1]: < 5.00
Fc1ccc(COc2ccccc2CNCc2cccnc2)cc1,> 10.2 µM,pIC50 [1]: < 4.99
CCCc1ccc(C(=O)C(C)Sc2nnc(-c3ccc(OC(F)F)cc3)o2)cc1 (configuration not stated),> 10 µM,pIC50 [1]: < 5.00
CC(C)c1nc2cc(NC(=O)CSc3nnnn3C3CC3)ccc2o1,> 10 µM,"pIC50 (PBLUC_HILL_SLOPE 2.34, PBLUC_R_SQUARED 0.391, read-out: LUCIFERASE INFECTION ASSAY - IC50): 5.40"
O=C1N=C(NC2CCCCC2)S/C1=C\c1cccc(C(F)(F)F)c1,> 10 µM,pIC50 [1]: < 5.00
Fc1ccc(-c2cnn3c(NCCCN4CCOCC4)ccnc23)cc1Cl,> 8.46 µM,"pIC50 (PBLUC_HILL_SLOPE 1.9, PBLUC_R_SQUARED 0.489, read-out: LUCIFERASE INFECTION ASSAY - IC50): 5.39"
Cc1sc2nc(CN3CCOCC3)nc(NCCc3c[nH]c4ccccc34)c2c1C,> 10 µM,pIC50 [1]: < 5.00
COc1ccc(NC(=O)C2(C)Cc3c(-c4cccc(NC(C)=O)c4)ccnc3O2)cc1 (configuration not stated),3.58 µM,"pIC50 (HEPG2TOX_HILL_SLOPE 2.96, HEPG2TOX_R_SQUARED 0.838, PBLUC_HILL_SLOPE 2.85, PBLUC_R_SQUARED 0.605, read-out: LUCIFERASE INFECTION ASSAY - IC50): 5.78"
O=C(/C=C/c1cccc([N+](=O)[O-])c1)c1cccc(N2CCCC2=O)c1,4.73 µM,"pIC50 (HEPG2TOX_HILL_SLOPE 11.8, HEPG2TOX_R_SQUARED 0.912, PBLUC_HILL_SLOPE 14.2, PBLUC_R_SQUARED 0.853, read-out: LUCIFERASE INFECTION ASSAY - IC50): 5.39"
CCCCCC1/C(=N\O)CC(c2ccccc2)N(C)C1c1ccccc1 (configuration not stated),> 9.42 µM,"pIC50 (FFLUC_HILL_SLOPE 1.59, FFLUC_R_SQUARED 0.859, read-out: LUCIFERASE INFECTION ASSAY - IC50): < 5.03"
O=C(Nc1ccc(-n2nc(C(F)(F)F)cc2C(F)(F)F)cc1)Nc1cc(Cl)cc(Cl)c1,2.08 µM,pIC50 [1]: 5.74
O=C(Nc1cccc(C(F)(F)F)c1)Nc1ncc([N+](=O)[O-])s1,2.73 µM,"pIC50 (HEPG2TOX_HILL_SLOPE 2.24, HEPG2TOX_R_SQUARED 0.981, PBLUC_HILL_SLOPE 1.72, PBLUC_R_SQUARED 0.576, read-out: LUCIFERASE INFECTION ASSAY - IC50): 6.12"
CN(C(=O)CSc1nnc(COc2ccccc2F)n1N)C1CCCCC1,6.57 µM,"pIC50 (HEPG2TOX_HILL_SLOPE 2.33, HEPG2TOX_R_SQUARED 0.96, PBLUC_HILL_SLOPE 2.14, PBLUC_R_SQUARED 0.67, read-out: LUCIFERASE INFECTION ASSAY - IC50): 5.63"
CC(C)c1ccc2cc(C(=O)Nc3ccc4c(c3)NC(=O)CO4)[nH]c2c1,2.97 µM,"pIC50 (HEPG2TOX_HILL_SLOPE 0.683, HEPG2TOX_R_SQUARED 0.922, PBLUC_HILL_SLOPE 2.26, PBLUC_R_SQUARED 0.558, read-out: LUCIFERASE INFECTION ASSAY - IC50): 5.95"
CCOC(=O)C1=C(Nc2cccc(Cl)c2)S/C(=C\c2ccc(C)cc2)C1=O,> 8.25 µM,pIC50 [1]: < 5.08

SMILES,IC90,further results
CC(NCc1ccc(-c2ccccc2)s1)c1ccc(-n2ccnc2)cc1 (configuration not stated),> 10 µM,"pIC50 (PBLUC_HILL_SLOPE 1.59, PBLUC_R_SQUARED 0.529, read-out: LUCIFERASE INFECTION ASSAY - IC50): 5.15"
CCOC(=O)Nc1cccc(N)c1C,> 10 µM,pIC50 [1]: < 5.00
Oc1cccc(-c2cnc3cnc(-c4ccccc4)cn23)c1,> 11.5 µM,"pIC50 (HEPG2TOX_HILL_SLOPE 7.12, HEPG2TOX_R_SQUARED 0.466, PBLUC_HILL_SLOPE 2.24, PBLUC_R_SQUARED 0.572, read-out: LUCIFERASE INFECTION ASSAY - IC50): 5.13"
CN1\C(=C/C=N/N=C/C2=C(N3CCOCC3)C(=C\c3ccc([N+](=O)[O-])cc3)/CC2)C(C)(C)c2ccccc21,9.46 µM,"pIC50 (PBLUC_HILL_SLOPE 22.4, PBLUC_R_SQUARED 0.296, read-out: LUCIFERASE INFECTION ASSAY - IC50): 5.07"
O=C(Cc1cc(Br)sc1Br)Nc1cccc(C(F)(F)F)c1,> 7.45 µM,pIC50 [1]: < 5.13
CNc1nc2cnc(Nc3cccc(C(C)C)c3)cc2n1CCOC,> 10 µM,"pIC50 (HEPG2TOX_HILL_SLOPE 0.218, HEPG2TOX_R_SQUARED 0.135, read-out: LUCIFERASE INFECTION ASSAY - IC50): < 5.00"
COc1ccc(OC)c(CCNc2nc3cnc(-c4cccs4)cc3n2C)c1,3.85 µM,"pIC50 (HEPG2TOX_HILL_SLOPE 3.25, HEPG2TOX_R_SQUARED 0.886, PBLUC_HILL_SLOPE 11.1, PBLUC_R_SQUARED 0.592, read-out: LUCIFERASE INFECTION ASSAY - IC50): 5.50"
N#C/C(=C(/Oc1ccc(Cl)cc1Cl)C(F)(F)F)c1ccccc1,> 9.21 µM,"pIC50 (HEPG2TOX_HILL_SLOPE 9.57, HEPG2TOX_R_SQUARED 0.894, PBLUC_HILL_SLOPE 12.7, PBLUC_R_SQUARED 0.611, read-out: LUCIFERASE INFECTION ASSAY - IC50): 5.06"
OC(/C(=N/Nc1ncnc2ccccc12)c1ccccc1)c1ccccc1 (configuration not stated),6.04 µM,"pIC50 (HEPG2TOX_HILL_SLOPE 1.63, HEPG2TOX_R_SQUARED 0.814, PBLUC_HILL_SLOPE 71.4, PBLUC_R_SQUARED 0.509, read-out: LUCIFERASE INFECTION ASSAY - IC50): 5.23"
C=CCc1ccccc1OCC(O)CNC(C)(C)CC(C)(C)C (configuration not stated),4.91 µM,"pIC50 (HEPG2TOX_HILL_SLOPE 15.1, HEPG2TOX_R_SQUARED 0.905, PBLUC_HILL_SLOPE 217, PBLUC_R_SQUARED 0.361, read-out: LUCIFERASE INFECTION ASSAY - IC50): 5.31"
Oc1c(Cl)cc(Cl)cc1/C=N/NC(=S)NC1CCCC1,3.83 µM,"pIC50 (HEPG2TOX_HILL_SLOPE 9.72, HEPG2TOX_R_SQUARED 0.599, PBLUC_HILL_SLOPE 20.7, PBLUC_R_SQUARED 0.654, read-out: LUCIFERASE INFECTION ASSAY - IC50): 5.46"
COc1cc(Br)c(/C=C2/C(=O)Nc3cc(Cl)ccc32)cc1O,> 10 µM,"pIC50 (HEPG2TOX_HILL_SLOPE 7.49, HEPG2TOX_R_SQUARED 0.517, PBLUC_HILL_SLOPE 14.1, PBLUC_R_SQUARED 0.1, read-out: LUCIFERASE INFECTION ASSAY - IC50): 5.03"
CN1CCC2(CC1)CC(Nc1ccc(C(F)(F)F)cc1[N+](=O)[O-])c1ccccc1O2 (configuration not stated),> 10 µM,"pIC50 (PBLUC_HILL_SLOPE 1.75, PBLUC_R_SQUARED 0.131, read-out: LUCIFERASE INFECTION ASSAY - IC50): < 5.00"
CC(C)CN1C(=O)N(Cc2ccccc2)C2(CCN(C3Cc4ccccc4C3)CC2)C1=O,> 7.65 µM,"pIC50 (PBLUC_HILL_SLOPE 12.6, PBLUC_R_SQUARED 0.313, read-out: LUCIFERASE INFECTION ASSAY - IC50): 5.14"
Cc1nc(N(C)Cc2c(C)nn(C3CCS(=O)(=O)C3)c2C)c2c(-c3ccccc3)csc2n1 (configuration not stated),> 10 µM,"pIC50 (HEPG2TOX_HILL_SLOPE 23.3, HEPG2TOX_R_SQUARED 0.0131, PBLUC_HILL_SLOPE 4.31, PBLUC_R_SQUARED 0.318, read-out: LUCIFERASE INFECTION ASSAY - IC50): 5.17"
O=C(NC1CC1)c1ccc(-c2cnc3c(NCc4cccs4)nccn23)cc1,3.14 µM,–
CCC(CC)c1nnc(NC(=O)/C=C/c2cn(-c3ccccc3)nc2-c2ccc(F)cc2)s1,> 10 µM,pIC50 [1]: < 5.00
